Data: ChEMBL document CHEMBL4476882, “Inhibitors of nedd8-activating enzyme” (2013)
Each block holds one compound with its values, some of them ahead of it. Active and inactive are the calls of the source. No cut-off for these calls is given here.

Legend:
[1] = target: T1, NEDD8 activating enzyme (Homo sapiens, UniProt Q8TBC4); assay: Inhibition of recombinant human NAE using GST-tagged Ubc12 and Flag-tagged Nedd8 incubated for 105 mins by HTRF assay; format: protein-complex assay
T1 sequence (Q8TBC4 whole entry): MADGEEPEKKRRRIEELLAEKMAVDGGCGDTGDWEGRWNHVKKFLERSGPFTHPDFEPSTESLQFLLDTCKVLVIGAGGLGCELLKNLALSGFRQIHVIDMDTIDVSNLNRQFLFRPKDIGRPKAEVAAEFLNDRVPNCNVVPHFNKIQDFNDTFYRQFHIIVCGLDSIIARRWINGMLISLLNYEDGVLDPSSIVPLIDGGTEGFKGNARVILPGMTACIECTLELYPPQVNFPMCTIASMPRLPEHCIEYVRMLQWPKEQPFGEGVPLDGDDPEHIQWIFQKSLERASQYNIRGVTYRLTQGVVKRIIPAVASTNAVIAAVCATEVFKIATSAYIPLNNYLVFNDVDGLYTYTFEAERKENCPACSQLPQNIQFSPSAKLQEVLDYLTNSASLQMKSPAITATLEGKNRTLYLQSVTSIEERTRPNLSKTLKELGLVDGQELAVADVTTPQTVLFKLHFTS
T1 sequence (Q13564 whole entry): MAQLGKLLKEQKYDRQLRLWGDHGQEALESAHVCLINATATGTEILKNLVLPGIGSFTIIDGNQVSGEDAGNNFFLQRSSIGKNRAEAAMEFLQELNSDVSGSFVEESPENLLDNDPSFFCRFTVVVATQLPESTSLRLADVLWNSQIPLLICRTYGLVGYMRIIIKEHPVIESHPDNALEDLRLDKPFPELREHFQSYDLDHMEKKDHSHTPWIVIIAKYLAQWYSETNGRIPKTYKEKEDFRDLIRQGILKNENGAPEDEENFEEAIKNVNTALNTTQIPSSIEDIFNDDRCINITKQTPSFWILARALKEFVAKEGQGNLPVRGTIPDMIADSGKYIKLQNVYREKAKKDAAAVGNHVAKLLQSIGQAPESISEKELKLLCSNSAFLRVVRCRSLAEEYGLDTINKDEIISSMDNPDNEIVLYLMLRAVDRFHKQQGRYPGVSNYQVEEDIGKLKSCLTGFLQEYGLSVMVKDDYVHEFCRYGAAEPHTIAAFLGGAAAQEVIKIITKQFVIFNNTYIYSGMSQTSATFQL

[2] = tested on: Mus musculus; assay: Inhibition of NAE in female Ncr nude mouse bearing HCT116 tumor xenografts assessed as increase in Nedd8-Cullin levels at 30 mg/kg, sc dosed as single administration measured up to 24 hrs post dose; format: functional, organism-based
[3] = Cmax in plasma of female Ncr nude mouse bearing HCT116 tumor xenografts at 30 mg/kg, sc dosed as single administration measured up to 24 hrs post dose; format: ADME, organism-based; set-up: dose 30 mg/kg, route subcutaneous
[4] = AUC (last) in plasma of female Ncr nude mouse bearing HCT116 tumor xenografts at 30 mg/kg, sc dosed as single administration measured up to 24 hrs post dose; format: ADME, organism-based; set-up: dose 30 mg/kg, time 0 - last, route subcutaneous
[5] = Cmax in plasma of female Ncr nude mouse bearing HCT116 tumor xenografts at 10 mg/kg, sc dosed as single administration measured up to 24 hrs post dose; format: ADME, organism-based; set-up: dose 10 mg/kg, route subcutaneous
[6] = AUC (last) in plasma of female Ncr nude mouse bearing HCT116 tumor xenografts at 10 mg/kg, sc dosed as single administration measured up to 24 hrs post dose; format: ADME, organism-based; set-up: dose 10 mg/kg, time 0 - last, route subcutaneous
[7] = tested on: Mus musculus; assay: Inhibition of NAE in female Ncr nude mouse bearing HCT116 tumor xenografts assessed as increase in Nedd8-Cullin levels at 10 mg/kg, sc dosed as single administration measured up to 24 hrs post dose; format: functional, organism-based

Structure (SMILES): NS(=O)(=O)OC[C@H]1C[C@@H](Nc2ncnc(N[C@H]3CCc4ccccc43)n2)[C@H](O)[C@@H]1O
IC50 [1]: ≤ 500 nM

Structure (SMILES): NS(=O)(=O)OC[C@@H]1C[C@@H](Oc2cc(N[C@H]3CCc4ccccc43)ncn2)C[C@@H]1O
IC50 [1]: > 10000 nM

Structure (SMILES): CO[C@H]1Cc2ccccc2[C@H]1Nc1cc(O[C@@H]2C[C@@H](COS(N)(=O)=O)[C@@H](O)C2)ncn1
inhibition [2]: Active
Cmax [3]: 27.1 µM
AUC(0-t) at 24 h [4]: 26.3 µM·h

Structure (SMILES): CN(C)C(=O)[C@H]1Cc2ccccc2[C@H]1Nc1cc(O[C@@H]2C[C@@H](COS(N)(=O)=O)[C@@H](O)C2)ncn1
IC50 [1]: 500 to 10000 nM

Structure (SMILES): CO[C@H]1CCc2ccccc2C1Nc1cc(O[C@H]2CC(O)[C@H](COS(N)(=O)=O)C2)ncn1 (single isomer, unassigned)
IC50 [1]: ≤ 500 nM

Further lines, with some results ahead:

IC50 [1]: ≤ 500 nM
Structure (SMILES): COc1cccc(-c2nc3c(N[C@@H]4C[C@@H](COS(N)(=O)=O)[C@@H](O)C4)ncnc3[nH]2)c1OC

IC50 [1]: ≤ 500 nM
Structure (SMILES): Cc1c(N[C@H]2CCc3ccccc32)ncnc1O[C@@H]1C[C@@H](COS(N)(=O)=O)[C@@H](O)C1

IC50 [1]: ≤ 500 nM
Structure (SMILES): COc1ccccc1-c1nc2c(N[C@@H]3C[C@@H](COS(N)(=O)=O)[C@@H](O)C3)ncnc2[nH]1

IC50 [1]: ≤ 500 nM
Structure (SMILES): NS(=O)(=O)OC[C@@H]1C[C@@H](Nc2ncnc3[nH]c(-c4ccc(Cl)cc4)nc23)C[C@@H]1O

Cmax [5]: 10.4 µM
Cmax [3]: 24.2 µM
AUC(0-t) at 24 h [6]: 24.5 µM·h
AUC(0-t) at 24 h [4]: 54.8 µM·h
Structure (SMILES): CO[C@H]1Cc2cc(Cl)ccc2C1Nc1cc(O[C@@H]2CC(COS(N)(=O)=O)[C@@H](O)C2)ncn1 (single isomer, unassigned)
inhibition [2]: Active
inhibition [7]: Active
